This is an account of results in patent US20220409743A1, “VIRUS-MIMETIC NANOPARTICLES” (UNIVERSITÄT REGENSBURG, priority 2019, published 2022).

The target of one assay is T1, sGC (Rattus norvegicus, UniProt P20595).
T1 construct: endogenous in cells; host or cells: mesangial cells
T1 sequence (P20595 1-619): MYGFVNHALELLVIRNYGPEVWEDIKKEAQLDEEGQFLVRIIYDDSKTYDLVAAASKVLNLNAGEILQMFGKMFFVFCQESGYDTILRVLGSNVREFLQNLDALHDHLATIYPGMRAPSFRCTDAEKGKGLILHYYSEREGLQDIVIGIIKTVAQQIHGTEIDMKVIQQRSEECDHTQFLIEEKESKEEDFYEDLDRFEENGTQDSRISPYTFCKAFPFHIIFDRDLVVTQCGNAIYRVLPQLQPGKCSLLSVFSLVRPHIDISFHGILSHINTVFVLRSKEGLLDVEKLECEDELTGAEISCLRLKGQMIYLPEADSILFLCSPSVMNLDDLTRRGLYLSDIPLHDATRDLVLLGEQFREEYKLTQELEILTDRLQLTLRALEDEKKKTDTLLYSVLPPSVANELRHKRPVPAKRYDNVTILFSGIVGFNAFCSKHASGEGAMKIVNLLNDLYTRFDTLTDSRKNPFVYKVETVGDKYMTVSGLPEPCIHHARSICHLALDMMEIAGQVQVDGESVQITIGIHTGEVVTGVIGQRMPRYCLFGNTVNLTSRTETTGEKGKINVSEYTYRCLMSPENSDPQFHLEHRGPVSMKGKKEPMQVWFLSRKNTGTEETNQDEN
T1 sequence (P19686 1-690 partner): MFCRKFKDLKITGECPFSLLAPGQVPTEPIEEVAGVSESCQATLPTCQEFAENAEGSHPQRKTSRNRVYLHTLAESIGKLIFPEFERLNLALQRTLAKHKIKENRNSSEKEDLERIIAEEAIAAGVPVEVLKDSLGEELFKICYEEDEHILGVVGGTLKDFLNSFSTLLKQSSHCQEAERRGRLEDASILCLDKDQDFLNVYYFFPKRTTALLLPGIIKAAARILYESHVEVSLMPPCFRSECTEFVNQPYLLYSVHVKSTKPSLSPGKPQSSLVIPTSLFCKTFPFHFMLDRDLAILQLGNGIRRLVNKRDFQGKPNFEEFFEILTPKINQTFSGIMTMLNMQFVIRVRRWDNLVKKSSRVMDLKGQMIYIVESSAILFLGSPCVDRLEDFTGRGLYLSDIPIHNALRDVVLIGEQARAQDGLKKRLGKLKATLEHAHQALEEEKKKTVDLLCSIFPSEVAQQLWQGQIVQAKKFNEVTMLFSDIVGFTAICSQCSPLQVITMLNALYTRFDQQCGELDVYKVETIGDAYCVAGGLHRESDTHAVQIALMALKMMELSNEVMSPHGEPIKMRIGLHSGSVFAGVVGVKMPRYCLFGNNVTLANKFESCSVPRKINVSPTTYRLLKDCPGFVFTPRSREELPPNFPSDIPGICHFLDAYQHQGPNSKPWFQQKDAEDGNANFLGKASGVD
In words: Western Blot of sGC levels in mesangial cells. Format: cell-based. Particulars: 24 h incubation; free CCG 2 μM, NPs 0.2 μM CCG. The protocol:
(§1) In the inventors' experimental set-up, CCG was initially encapsulated in hetero-multivalent EXPcRGD NPs. Resulting NPs carried approximately 500-700 CCG molecules per NP (data not shown). In all following experiments, the administration of free cinaciguat at a concentration of 2 μM was compared to CCG-loaded EXPcRGD NPs at a concentration of approximately 0.5 nM (equaling 0.2 μM of CCG) and drug-free EXPcRGD control NPs (FIG. 30). […] CCG-carrying NPs however carried only 10% of respective CCG amount to test a possible drug delivery effect.
To assess the effect of CCG-loaded EXPcRGD NPs on target sGC, mesangial cells were initially incubated for 24 h and protein quantity was assessed using Western Blot analysis.

Another assay relates to PGK1-α. The assay can be described thus: Western Blot of VASP phosphorylation (PGK1-α activity). Format: cell-based. Particulars: free CCG 2 μM, NPs 0.2 μM CCG. The protocol:
To assess PGK1-αactivity, phosphorylation of its substrate vasodilator-stimulated phosphoprotein (VASP) was assessed. […] (n=3; ****P<0.0001; ***P<0.001; **P<0.01; *P<0.05).
as §1

The test system of another assay is mesangial cells. The assay can be described thus: Proliferation assay of TGF-β stimulated mesangial cells. Format: cell-based. As to conditions: 4 h pre-incubation, 10 ng mL^−1 TGF-β 48 h. The procedure:
(§2) Finally, the anti-fibrotic and anti-proliferative potential of a NP-assisted CCG delivery was analyzed. In that regard, mesangial cells were initially incubated for 4 h either with free CCG, CCG-loaded EXPcRGD NPs or control NPs without encapsulated drug. After 4 h, 10 ng mL^−1 of transforming growth factor β (TGF-β) were added for 48 h to induce a fibrotic and hyperproliferative remodeling.

The test system of a further assay is α-SMA. The assay can be described thus: Western Blot / LSM of fibrosis marker α-SMA after TGF-β. Format: cell-based. Particulars: 4 h pre-incubation, 10 ng mL^−1 TGF-β 48 h. The procedure:
as §2

Another assay has as its system Collagen I. In words: Western Blot of fibrosis marker Collagen I after TGF-β. Format: cell-based. Particulars: 4 h pre-incubation, 10 ng mL^−1 TGF-β 48 h. The procedure:
as §2

Another assay has as its target T2, AT1R (Rattus norvegicus, UniProt P25095).
T2 sequence (P25095 1-359): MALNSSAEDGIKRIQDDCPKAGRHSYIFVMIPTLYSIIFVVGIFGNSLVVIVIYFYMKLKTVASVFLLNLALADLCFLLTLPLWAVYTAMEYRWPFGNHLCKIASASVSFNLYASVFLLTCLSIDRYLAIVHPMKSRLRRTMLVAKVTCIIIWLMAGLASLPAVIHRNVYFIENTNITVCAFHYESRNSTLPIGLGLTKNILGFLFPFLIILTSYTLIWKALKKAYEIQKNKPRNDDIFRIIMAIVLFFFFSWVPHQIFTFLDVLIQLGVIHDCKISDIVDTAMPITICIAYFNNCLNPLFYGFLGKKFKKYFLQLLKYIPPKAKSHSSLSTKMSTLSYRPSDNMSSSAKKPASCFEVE
The assay can be described thus: Intracellular calcium measurement (Fura-2): ligand affinity and particle avidity for the AT1R. Particulars: read-out: IC50, ligand affinity for the AT1R; free ligand; rMCs incubated 30 min prior to stimulation with Ang-II.

Procedure for AT1R: In order to assess the AT1R interaction of the different NP formulations a ratiometric Fura-2 Ca^2+ chelator method was used as previously described [1, 3] using AT1R positive rMCs. For that purpose, rMCs were seeded in T-150 flasks (Corning) and incubated until confluent. […] Cells were incubated for 1 hour, light protected, with gentle agitation (50 rpm). Afterwards, the cell suspension was washed with DPBS by centrifugation (2×, 200 g, 5 min, RT), and resuspended in Leibovitz medium supplemented with 2.5 mM Probenecid at a count of 2 million cells/mL. […] To determine the kinetics of the AT1R interaction (FIG. 3D) the same procedure was used, but the samples were incubated for different time periods (from 5 to 320min) with the cells. The maximal and minimal signal ratio, was determined by stimulating the cells with 0.1% Triton-X 100 or 0.1% Triton-X 100 with 45 mM ethylene glycol-bis(2-aminoethylether)-N,N,N′,N′-tetraacetic acid (EGTA), respectively.

For the compound `O=C(O)CCCCN(CCc1ccccc1OCc1ccc(CCc2ccccc2)cc1)Cc1ccc(C(=O)O)cc1` [CCG, Cinaciguat], the sGC levels result on sGC is “substantial increase in sGC levels”. In the assay on PGK1-α, the P-VASP/VASP ratio entry is listed as “considerable increase in P-VASP/VASP ratio”. Further, in the assay with mesangial cells, the “Effect on TGF-β induced hyperproliferation” value is “considerably decreased this effect”. For the same compound, the “α-SMA levels compared to the TGF-β control” value in the assay with α-SMA is on record as “drastic reduction”. In the assay with Collagen I, the “Collagen I levels compared to the TGF-β control” value was “drastic reduction”.

As to “angiotensin-I (DRVYIHPFHL; Angiotensin-1; UniProt P01019 25-34, looked up) [Ang-I]”, the 50% inhibitory concentration (IC50) with AT1R is 0.9 ± 0.6 µM.
